Measured values from patent publication US20100063008A1, “GELATINOUS ELASTOMER COMPOSITIONS” (Silipos, Inc., priority 2008, published 2010).

What was measured:
[1] = Exudation of active agents from gel specimens to filter paper discs, quantified by UV, MS, GC and/or HPLC after extraction; type: physicochemical; conditions: for Active Agent Transferred from Gel to Filters: 37° C., 0.40 psi; for Total Active Agent Exuded from Gel: cumulative
Experimental: Sample filter paper discs were placed in contact with gel specimens of same diameter under constant low pressure (0.40 psi. (2.8 Mpa)) at 37° C. Multiple time-controlled exposures of the filter paper to the gel were preformed in succession to same side of gel. Quantification of active agent transferred to the filter paper discs was determined by UV, MS, GC and or HPLC analysis after extraction of active agent from the filter paper. Exudation rates was expressed as μg/unit time per unit surface area.
This compound was then divided into three aliquots' of approximately 10 grams each and poured into a 2.625″ diameter aluminum petri dish and allowed to cool to create individual gel samle discs. Subsequently, absorbent cellulose filter blotter paper was die cut to enough 2.625″ diameter discs to be employed as a wicking media for repeated exposure in direct contact with the gel compound under specific conditions as follows.
(§1) Exposure Conditions: 37-40 deg. C., Sample filter paper discs in contact with gel specimens of same diameter were stacked in […]. aluminum petri dishes, gel specimen diameter 2.625″×0.125″ thick, filter paper disc diameter 2.625″ with another petri dish and a 1 kg dead weight on top of stack. Pressure calculated at ˜0.407 psi. (2.8 Mpa) constant. Two replicates per test condition. Repeat exposures at 3 hours then repeat three exposures of 18 hours each, changing discs but keeping same gel specimen and same side of each gel specimen in contact with each successive filter paper disc sample.
The filter paper disc specimens aa through kk were then sent to an analytical laboratory for HPLC and GC analysis along with a small sample of each individual raw ingredient so that the HPLC and GC equipment could be calibrated for the protocol being employed by the lab. This calibration allowed for determining the maximum recoverable (measurable) amount of each ingredient that could be measured using these techniques and would later be used to correct the data. The analytical laboratory then detected and measured the amount of each of the added active agents that was flushed out of the filter paper discs using wet chemistry techniques known to those skilled in the art.
The analytical data was interpreted, and the amounts of each ingredient which was exuded into each filter paper blotter disc specimen, and subsequently extracted using wet chemistry, were then entered into a data analysis spreadsheet and adjusted based on the Analytical Recovery Rate to determine actual concentration of each ingredient extracted.

[2] = Total weight of exudate (oil) absorbed by filter paper blotter discs and theoretical amount of each ingredient exuded; type: physicochemical
Experimental: as §1
Data was calculated to determine the total weight of exudate absorbed by each individual sample filter paper blotter disc test specimen. Calculations were then performed based upon the ratios of ingredients in the gel disc formula to determine the theoretical amount of each ingredient that could have been exuded from the oil if the oil contained the same ratio of ingredients as contained in the control oil sample and in the gel.

[3] = Gel Specimen Number 1, 1 h filter exposure, time 0-1 h
[4] = Gel Specimen Number 1, 3 h filter exposure, time 1-4 h
[5] = Gel Specimen Number 1, 18 h filter exposure, time 4-22 h
[6] = Gel Specimen Number 1, 18 h filter exposure, time 22-40 h
[7] = Gel Specimen Number 1, 18 h filter exposure, time 40-58 h
[8] = Gel Specimen Number 1, Time 1 h
[9] = Gel Specimen Number 1, Time 4 h
[10] = Gel Specimen Number 1, Time 22 h
[11] = Gel Specimen Number 1, Time 40 h
[12] = Gel Specimen Number 1, Time 58 h
[13] = Gel Specimen Number 2, 1 h filter exposure, time 0-1 h
[14] = Gel Specimen Number 2, 3 h filter exposure, time 1-4 h
[15] = Gel Specimen Number 2, 18 h filter exposure, time 4-22 h
[16] = Gel Specimen Number 2, 18 h filter exposure, time 22-40 h
[17] = Gel Specimen Number 2, 18 h filter exposure, time 40-58 h
[18] = Gel Specimen Number 2, Time 1 h
[19] = Gel Specimen Number 2, Time 4 h
[20] = Gel Specimen Number 2, Time 22 h
[21] = Gel Specimen Number 2, Time 40 h
[22] = Gel Specimen Number 2, Time 58 h
[23] = Specimen aa, Hours 1, Cummulative Hours 1
[24] = Specimen bb, Hours 1, Cummulative Hours 1
[25] = Specimen cc, Hours 3, Cummulative Hours 4
[26] = Specimen dd, Hours 3, Cummulative Hours 4
[27] = Specimen ee, Hours 18, Cummulative Hours 22
[28] = Specimen ff, Hours 18, Cummulative Hours 22
[29] = Specimen gg, Hours 18, Cummulative Hours 40
[30] = Specimen hh, Hours 18, Cummulative Hours 40
[31] = Specimen ii, Hours 18, Cummulative Hours 58
[32] = Specimen kk, Hours 18, Cummulative Hours 58
[33] = Sample aa, Test Disc 1, Exposed 1 hours
[34] = Sample bb, Test Disc 1 Replicate, Exposed 1 hours
[35] = Sample cc, Test Disc 2, Exposed 3 hours
[36] = Sample dd, Test Disc 2 Replicate, Exposed 3 hours
[37] = Sample ee, Test Disc 3, Exposed 18 hours
[38] = Sample ff, Test Disc 3 Replicate, Exposed 18 hours
[39] = Sample gg, Test Disc 4, Exposed 18 hours
[40] = Sample hh, Test Disc 4 Replicate, Exposed 18 hours
[41] = Sample ii, Test Disc 5, Exposed 18 hours
[42] = Sample kk, Test Disc 5 Replicate, Exposed 18 hours

O=c1c(O)c(-c2ccc(O)c(O)c2)oc2cc(O)cc(O)c12 [Quercetin]
Active Agent Transferred from Gel to Filters [1, 3]: 10 μg per filter
Active Agent Transferred from Gel to Filters [1, 4]: 11 μg per filter
Active Agent Transferred from Gel to Filters [1, 5]: 21 μg per filter
Active Agent Transferred from Gel to Filters [1, 6]: 31 μg per filter
Active Agent Transferred from Gel to Filters [1, 7]: 15 μg per filter
Total Active Agent Exuded from Gel [1, 8]: 10 µg
Total Active Agent Exuded from Gel [1, 9]: 21 µg
Total Active Agent Exuded from Gel [1, 10]: 42 µg
Total Active Agent Exuded from Gel [1, 11]: 72 µg
Total Active Agent Exuded from Gel [1, 12]: 87 µg
Active Agent Transferred from Gel to Filters [1, 13]: 12 μg per filter
Active Agent Transferred from Gel to Filters [1, 14]: 15 μg per filter
Active Agent Transferred from Gel to Filters [1, 15]: 30 μg per filter
Active Agent Transferred from Gel to Filters [1, 16]: 21 μg per filter
Active Agent Transferred from Gel to Filters [1, 17]: 16 μg per filter
Total Active Agent Exuded from Gel [1, 18]: 12 µg
Total Active Agent Exuded from Gel [1, 19]: 27 µg
Total Active Agent Exuded from Gel [1, 20]: 57 µg
Total Active Agent Exuded from Gel [1, 21]: 78 µg
Total Active Agent Exuded from Gel [1, 22]: 94 µg
Quantitative Analysis - Islechem u-gram extraction [1, 23]: 9 u-gram
Quantitative Analysis - Islechem u-gram extraction [1, 24]: 11 u-gram
Quantitative Analysis - Islechem u-gram extraction [1, 25]: 9.4 u-gram
Quantitative Analysis - Islechem u-gram extraction [1, 26]: 13.2 u-gram
Quantitative Analysis - Islechem u-gram extraction [1, 27]: 18.6 u-gram
Quantitative Analysis - Islechem u-gram extraction [1, 28]: 28.6 u-gram
Quantitative Analysis - Islechem u-gram extraction [1, 29]: 27.5 u-gram
Quantitative Analysis - Islechem u-gram extraction [1, 30]: 19 u-gram
Quantitative Analysis - Islechem u-gram extraction [1, 31]: 13.2 u-gram
Quantitative Analysis - Islechem u-gram extraction [1, 32]: 14.2 u-gram
Estimated grams of ingredient exuded (theoretical amount from ratios of ingredients in the gel disc formula) [2, 33]: 0.0009 grams
Estimated grams of ingredient exuded (theoretical amount from ratios of ingredients in the gel disc formula) [2, 34]: 0.0012 grams
Estimated grams of ingredient exuded (theoretical amount from ratios of ingredients in the gel disc formula) [2, 35]: 0.0009 grams
Estimated grams of ingredient exuded (theoretical amount from ratios of ingredients in the gel disc formula) [2, 36]: 0.0014 grams
Estimated grams of ingredient exuded (theoretical amount from ratios of ingredients in the gel disc formula) [2, 37]: 0.0024 grams
Estimated grams of ingredient exuded (theoretical amount from ratios of ingredients in the gel disc formula) [2, 38]: 0.0024 grams
Estimated grams of ingredient exuded (theoretical amount from ratios of ingredients in the gel disc formula) [2, 39]: 0.0025 grams
Estimated grams of ingredient exuded (theoretical amount from ratios of ingredients in the gel disc formula) [2, 40]: 0.0022 grams
Estimated grams of ingredient exuded (theoretical amount from ratios of ingredients in the gel disc formula) [2, 41]: 0.0020 grams
Estimated grams of ingredient exuded (theoretical amount from ratios of ingredients in the gel disc formula) [2, 42]: 0.0020 grams

CCCCCCCCCCCCCCCC(=O)OC/C=C(C)/C=C/C=C(C)/C=C/C1=C(C)CCCC1(C)C [Vit. A Palmitate, reference compound]
Active Agent Transferred from Gel to Filters [1, 3]: 841 μg per filter
Active Agent Transferred from Gel to Filters [1, 4]: 977 μg per filter
Active Agent Transferred from Gel to Filters [1, 5]: 1955 μg per filter
Active Agent Transferred from Gel to Filters [1, 6]: 1682 μg per filter
Active Agent Transferred from Gel to Filters [1, 7]: 916 μg per filter
Total Active Agent Exuded from Gel [1, 8]: 841 µg
Total Active Agent Exuded from Gel [1, 9]: 1818 µg
Total Active Agent Exuded from Gel [1, 10]: 3773 µg
Total Active Agent Exuded from Gel [1, 11]: 5455 µg
Total Active Agent Exuded from Gel [1, 12]: 6370 µg
Active Agent Transferred from Gel to Filters [1, 13]: 1159 μg per filter
Active Agent Transferred from Gel to Filters [1, 14]: 1284 μg per filter
Active Agent Transferred from Gel to Filters [1, 15]: 1864 μg per filter
Active Agent Transferred from Gel to Filters [1, 16]: 1307 μg per filter
Active Agent Transferred from Gel to Filters [1, 17]: 1523 μg per filter
Total Active Agent Exuded from Gel [1, 18]: 1159 µg
Total Active Agent Exuded from Gel [1, 19]: 2443 µg
Total Active Agent Exuded from Gel [1, 20]: 4307 µg
Total Active Agent Exuded from Gel [1, 21]: 5614 µg
Total Active Agent Exuded from Gel [1, 22]: 7136 µg
Quantitative Analysis - Islechem u-gram extraction [1, 23]: 740 u-gram
Quantitative Analysis - Islechem u-gram extraction [1, 24]: 1020 u-gram
Quantitative Analysis - Islechem u-gram extraction [1, 25]: 860 u-gram
Quantitative Analysis - Islechem u-gram extraction [1, 26]: 1130 u-gram
Quantitative Analysis - Islechem u-gram extraction [1, 27]: 1720 u-gram
Quantitative Analysis - Islechem u-gram extraction [1, 28]: 1640 u-gram
Quantitative Analysis - Islechem u-gram extraction [1, 29]: 1480 u-gram
Quantitative Analysis - Islechem u-gram extraction [1, 30]: 1150 u-gram
Quantitative Analysis - Islechem u-gram extraction [1, 31]: 806 u-gram
Quantitative Analysis - Islechem u-gram extraction [1, 32]: 1340 u-gram
Estimated grams of ingredient exuded (theoretical amount from ratios of ingredients in the gel disc formula) [2, 33]: 0.0022 grams
Estimated grams of ingredient exuded (theoretical amount from ratios of ingredients in the gel disc formula) [2, 34]: 0.0031 grams
Estimated grams of ingredient exuded (theoretical amount from ratios of ingredients in the gel disc formula) [2, 35]: 0.0024 grams
Estimated grams of ingredient exuded (theoretical amount from ratios of ingredients in the gel disc formula) [2, 36]: 0.0035 grams
Estimated grams of ingredient exuded (theoretical amount from ratios of ingredients in the gel disc formula) [2, 37]: 0.0062 grams
Estimated grams of ingredient exuded (theoretical amount from ratios of ingredients in the gel disc formula) [2, 38]: 0.0062 grams
Estimated grams of ingredient exuded (theoretical amount from ratios of ingredients in the gel disc formula) [2, 39]: 0.0064 grams
Estimated grams of ingredient exuded (theoretical amount from ratios of ingredients in the gel disc formula) [2, 40]: 0.0057 grams
Estimated grams of ingredient exuded (theoretical amount from ratios of ingredients in the gel disc formula) [2, 41]: 0.0051 grams
Estimated grams of ingredient exuded (theoretical amount from ratios of ingredients in the gel disc formula) [2, 42]: 0.0051 grams
